Values of other authors as cited in patent publication US20130316926A1, “METHOD FOR THE MONITORING OF SMOKING CESSATION COMPLIANCE AND RECOVERY, THERAPEUTIC INTERVENTION, AND RISK MANAGEMENT” (Health Diagnostic Laboratory, Inc., priority 2012, published 2013).
Where two headings read alike, the source gives them in different places.

How the values were obtained:
[1] = for urinary concentration: tobacco user, regardless of nicotine replacement therapy
[2] = for t½: b55, cotinine value is an average

SMILES	Concentration of Urinary: Non-tobacco user with no passive exposure [1]	Concentration of Urinary: Non-tobacco user with Passive exposure [1]	Concentration of Urinary: Tobacco user after 2 weeks' abstinence [1]	urinary concentration [1]	half-life [2]	concentration in urine of tobacco users [1]	half-life ([2]; b40, Benowitz 1986)	t½ [2]	time to reach the central nervous system ([2]; after tobacco smoke inhalation)	fraction of circulating nicotine metabolized to cotinine ([2]; by cytochrome P450 and aldehyde oxidase)	distribution half-life ([2]; in vivo)	elimination half-life ([2]; in vivo)	nicotine leaving the liver in metabolite forms ([2]; on average)	nicotine that enters the liver and exits unchanged ([2]; on average)
c1cncc([C@@H]2CCCCN2)c1 [Anabasine]	<2.0 ng/mL	<2.0 ng/mL	<2.0 ng/mL	> 10 ng/mL	–	–	–	–	–	–	–	–	–	–
c1cncc([C@@H]2CCCN2)c1 [Nornicotine]	<2.0 ng/mL	<2.0 ng/mL	<2.0 ng/mL	> 30 ng/mL	–	–	–	–	–	–	–	–	–	–
CN1C(=O)[C@H](O)C[C@H]1c1cccnc1 (relative stereo) [trans-3-hydroxycotinine]	<50 ng/mL	<50 ng/mL	<120 ng/mL	–	10 h	3,000-25,000 ng/mL	–	–	–	–	–	–	–	–
CN1C(=O)CC[C@H]1c1cccnc1 [Cotinine]	<5.0 ng/mL	<20 ng/mL	<50 ng/mL	–	15 h	1,000-8,000 ng/mL	about 20 hrs	16 h	–	–	–	–	–	–
CN1CCCC1c1cccnc1 (centres unmarked) [Nicotine]	<2.0 ng/mL	<20 ng/mL	<30 ng/mL	–	2 h	1,000-5,000 ng/mL	–	2 h	≤ 20 s	70%	8 min	2 h	70%	30%
